Results from ChEMBL document CHEMBL1134625 (J Med Chem, 2001).

Experiments:
Adenosine receptor A3 = target: T1, Adenosine receptor A3 (Homo sapiens, UniProt P0DMS8)
T1 sequence (P0DMS8 whole entry): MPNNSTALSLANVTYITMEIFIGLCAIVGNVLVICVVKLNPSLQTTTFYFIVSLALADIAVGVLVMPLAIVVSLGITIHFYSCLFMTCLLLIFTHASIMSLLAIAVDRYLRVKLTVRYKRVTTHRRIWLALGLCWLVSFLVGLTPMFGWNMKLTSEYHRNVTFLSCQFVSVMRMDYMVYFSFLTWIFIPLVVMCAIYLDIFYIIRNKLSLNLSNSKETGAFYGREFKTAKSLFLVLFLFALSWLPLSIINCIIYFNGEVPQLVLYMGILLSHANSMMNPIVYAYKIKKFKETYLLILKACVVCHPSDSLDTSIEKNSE

[1] = target: T2, 5-hydroxytryptamine receptor 1A (Homo sapiens, UniProt P08908)
T2 sequence (P08908 whole entry): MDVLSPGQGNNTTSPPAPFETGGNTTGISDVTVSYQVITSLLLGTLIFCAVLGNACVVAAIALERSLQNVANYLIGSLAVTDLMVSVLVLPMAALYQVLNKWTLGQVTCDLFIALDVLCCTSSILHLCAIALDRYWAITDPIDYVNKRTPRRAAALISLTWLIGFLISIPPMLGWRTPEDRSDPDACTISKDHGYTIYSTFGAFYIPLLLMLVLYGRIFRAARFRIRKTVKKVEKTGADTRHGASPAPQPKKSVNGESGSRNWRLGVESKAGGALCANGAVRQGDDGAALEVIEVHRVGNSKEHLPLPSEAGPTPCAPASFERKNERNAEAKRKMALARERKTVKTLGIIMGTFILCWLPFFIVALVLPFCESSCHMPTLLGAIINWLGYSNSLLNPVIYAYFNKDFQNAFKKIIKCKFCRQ

[2] = target: 5-hydroxytryptamine receptor 2A (Homo sapiens, UniProt P28223)
D(4) dopamine receptor = target: T3, D(4) dopamine receptor (Homo sapiens, UniProt P21917)
T3 sequence (P21917 whole entry): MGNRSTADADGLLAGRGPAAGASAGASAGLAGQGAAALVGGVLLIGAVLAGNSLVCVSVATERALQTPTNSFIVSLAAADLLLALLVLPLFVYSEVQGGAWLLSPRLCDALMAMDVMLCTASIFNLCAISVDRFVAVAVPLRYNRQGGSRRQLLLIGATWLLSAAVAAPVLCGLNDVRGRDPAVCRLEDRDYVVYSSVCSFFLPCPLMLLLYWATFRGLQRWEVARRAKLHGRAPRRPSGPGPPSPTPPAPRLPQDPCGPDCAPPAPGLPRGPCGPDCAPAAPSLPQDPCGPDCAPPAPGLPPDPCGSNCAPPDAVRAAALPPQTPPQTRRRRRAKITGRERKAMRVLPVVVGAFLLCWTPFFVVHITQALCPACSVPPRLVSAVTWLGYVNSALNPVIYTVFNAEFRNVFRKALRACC

Histamine H1 receptor = Histamine H1 receptor (Homo sapiens, UniProt P35367)
[3] = target: T4, 5-hydroxytryptamine receptor 2C (Homo sapiens, UniProt P28335)
T4 sequence (P28335 whole entry): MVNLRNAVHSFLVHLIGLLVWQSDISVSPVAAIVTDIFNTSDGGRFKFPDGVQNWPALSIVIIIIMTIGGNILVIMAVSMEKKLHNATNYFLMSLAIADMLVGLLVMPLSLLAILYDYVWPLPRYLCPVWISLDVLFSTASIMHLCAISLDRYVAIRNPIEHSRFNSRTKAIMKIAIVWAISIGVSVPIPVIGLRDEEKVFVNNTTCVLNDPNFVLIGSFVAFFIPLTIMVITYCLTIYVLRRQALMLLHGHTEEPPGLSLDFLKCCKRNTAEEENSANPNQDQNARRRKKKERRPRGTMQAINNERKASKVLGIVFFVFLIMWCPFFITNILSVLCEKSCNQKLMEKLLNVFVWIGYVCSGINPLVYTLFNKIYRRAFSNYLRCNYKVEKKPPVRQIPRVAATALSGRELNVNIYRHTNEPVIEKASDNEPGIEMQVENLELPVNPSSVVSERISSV

[4] = target: 5-hydroxytryptamine receptor 6 (Homo sapiens, UniProt P50406)
[5] = target: 5-hydroxytryptamine receptor 7 (Homo sapiens, UniProt P34969)
D(3) dopamine receptor = D(3) dopamine receptor (Homo sapiens, UniProt P35462)
D(2) dopamine receptor = D(2) dopamine receptor (Homo sapiens, UniProt P14416)
D(1A) dopamine receptor = D(1A) dopamine receptor (Homo sapiens, UniProt P21728)
D(1B) dopamine receptor = D(1B) dopamine receptor (Homo sapiens, UniProt P21918)
[6] = target: T5, Sodium-dependent dopamine transporter (Homo sapiens, UniProt Q01959)
Histamine H2 receptor = Histamine H2 receptor (Homo sapiens, UniProt P25021)
[7] = target: Voltage-gated L-type calcium channel (Homo sapiens, UniProt Q13936+Q13698+Q01668+O60840); format: protein assay
Substance-P receptor = Substance-P receptor (Homo sapiens, UniProt P25103)
[8] = target: T6, Adrenergic receptor alpha-1 (Homo sapiens, UniProt P35348+P25100+P35368); format: protein assay
T6 sequence (P35348 whole entry): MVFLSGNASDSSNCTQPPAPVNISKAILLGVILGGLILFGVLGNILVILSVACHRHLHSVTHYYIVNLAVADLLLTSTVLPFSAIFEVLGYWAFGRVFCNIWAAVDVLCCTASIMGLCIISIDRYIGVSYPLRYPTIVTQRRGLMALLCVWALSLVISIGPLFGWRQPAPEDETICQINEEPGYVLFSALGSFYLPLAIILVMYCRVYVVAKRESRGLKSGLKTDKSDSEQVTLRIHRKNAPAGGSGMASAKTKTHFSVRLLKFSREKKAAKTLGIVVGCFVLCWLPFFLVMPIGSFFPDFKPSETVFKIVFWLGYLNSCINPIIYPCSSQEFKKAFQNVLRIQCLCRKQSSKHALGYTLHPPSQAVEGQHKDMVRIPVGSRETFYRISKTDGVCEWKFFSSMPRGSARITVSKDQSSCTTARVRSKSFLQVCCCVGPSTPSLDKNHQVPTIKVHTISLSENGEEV
T6 sequence (P25100 whole entry): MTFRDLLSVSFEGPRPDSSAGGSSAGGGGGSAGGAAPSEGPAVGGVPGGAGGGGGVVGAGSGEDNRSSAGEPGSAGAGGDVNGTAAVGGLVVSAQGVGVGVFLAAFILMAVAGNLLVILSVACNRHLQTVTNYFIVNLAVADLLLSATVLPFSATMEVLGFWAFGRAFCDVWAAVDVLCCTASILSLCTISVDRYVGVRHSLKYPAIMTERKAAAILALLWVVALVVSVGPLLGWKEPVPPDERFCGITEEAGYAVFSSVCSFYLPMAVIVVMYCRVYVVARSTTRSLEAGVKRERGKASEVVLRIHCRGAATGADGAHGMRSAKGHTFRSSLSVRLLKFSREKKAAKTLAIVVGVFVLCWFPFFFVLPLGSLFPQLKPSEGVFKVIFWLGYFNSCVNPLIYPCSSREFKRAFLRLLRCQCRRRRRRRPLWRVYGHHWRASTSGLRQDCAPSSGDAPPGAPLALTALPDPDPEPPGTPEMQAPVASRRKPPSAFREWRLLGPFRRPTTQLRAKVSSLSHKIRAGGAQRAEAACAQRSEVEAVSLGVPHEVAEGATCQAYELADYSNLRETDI
T6 sequence (P35368 whole entry): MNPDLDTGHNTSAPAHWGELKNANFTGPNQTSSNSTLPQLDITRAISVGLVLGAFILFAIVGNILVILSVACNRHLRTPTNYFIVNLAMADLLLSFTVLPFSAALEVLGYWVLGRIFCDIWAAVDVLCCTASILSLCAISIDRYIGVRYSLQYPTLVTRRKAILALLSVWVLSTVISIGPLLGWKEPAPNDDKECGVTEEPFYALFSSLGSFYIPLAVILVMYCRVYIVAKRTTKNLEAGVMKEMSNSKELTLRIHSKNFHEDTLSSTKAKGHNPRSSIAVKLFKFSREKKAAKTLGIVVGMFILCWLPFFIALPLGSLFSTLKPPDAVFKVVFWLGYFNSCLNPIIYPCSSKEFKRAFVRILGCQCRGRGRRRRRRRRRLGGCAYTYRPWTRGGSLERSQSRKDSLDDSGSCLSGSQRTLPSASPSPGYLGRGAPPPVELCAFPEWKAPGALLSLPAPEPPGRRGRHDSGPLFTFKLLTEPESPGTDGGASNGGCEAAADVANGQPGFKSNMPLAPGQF

Substance-K receptor = Substance-K receptor (Homo sapiens, UniProt P21452)
Vasopressin V1a receptor = Vasopressin V1a receptor (Homo sapiens, UniProt P37288)
[9] = target: 5-hydroxytryptamine receptor 5A (Homo sapiens, UniProt P47898)
Adenosine receptor A1 = Adenosine receptor A1 (Homo sapiens, UniProt P30542)
[10] = target: T5, Sodium-dependent dopamine transporter; remark: listed apart in the source

Sequence of 5-hydroxytryptamine receptor 6 (P50406 whole entry): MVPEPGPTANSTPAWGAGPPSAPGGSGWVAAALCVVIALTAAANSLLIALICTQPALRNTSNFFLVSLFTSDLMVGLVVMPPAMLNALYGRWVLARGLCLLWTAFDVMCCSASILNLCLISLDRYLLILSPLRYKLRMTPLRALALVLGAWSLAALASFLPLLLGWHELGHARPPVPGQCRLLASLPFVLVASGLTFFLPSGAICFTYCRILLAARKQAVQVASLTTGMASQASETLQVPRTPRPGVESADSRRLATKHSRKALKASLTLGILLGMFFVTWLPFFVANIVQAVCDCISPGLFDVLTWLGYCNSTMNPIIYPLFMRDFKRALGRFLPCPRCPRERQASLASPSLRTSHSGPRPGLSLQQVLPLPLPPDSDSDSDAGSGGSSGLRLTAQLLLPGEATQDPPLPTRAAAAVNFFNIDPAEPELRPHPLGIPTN
T5 sequence (Q01959 whole entry): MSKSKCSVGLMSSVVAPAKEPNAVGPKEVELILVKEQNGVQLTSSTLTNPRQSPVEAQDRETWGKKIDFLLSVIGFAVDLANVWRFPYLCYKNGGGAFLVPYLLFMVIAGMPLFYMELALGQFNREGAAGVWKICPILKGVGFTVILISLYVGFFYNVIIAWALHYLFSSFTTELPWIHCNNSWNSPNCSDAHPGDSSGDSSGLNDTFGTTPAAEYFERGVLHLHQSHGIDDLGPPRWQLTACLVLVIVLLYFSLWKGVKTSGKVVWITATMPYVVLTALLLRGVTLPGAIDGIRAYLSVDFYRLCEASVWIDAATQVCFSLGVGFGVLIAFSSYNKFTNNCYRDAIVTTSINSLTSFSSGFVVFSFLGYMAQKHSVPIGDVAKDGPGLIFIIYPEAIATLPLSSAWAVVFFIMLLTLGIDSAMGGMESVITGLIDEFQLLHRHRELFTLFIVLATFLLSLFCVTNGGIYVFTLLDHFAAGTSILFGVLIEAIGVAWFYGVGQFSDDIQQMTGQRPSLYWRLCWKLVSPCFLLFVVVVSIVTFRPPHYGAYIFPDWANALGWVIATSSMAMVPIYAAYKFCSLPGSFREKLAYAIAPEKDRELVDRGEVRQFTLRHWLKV
Sequence of D(1A) dopamine receptor (P21728 whole entry): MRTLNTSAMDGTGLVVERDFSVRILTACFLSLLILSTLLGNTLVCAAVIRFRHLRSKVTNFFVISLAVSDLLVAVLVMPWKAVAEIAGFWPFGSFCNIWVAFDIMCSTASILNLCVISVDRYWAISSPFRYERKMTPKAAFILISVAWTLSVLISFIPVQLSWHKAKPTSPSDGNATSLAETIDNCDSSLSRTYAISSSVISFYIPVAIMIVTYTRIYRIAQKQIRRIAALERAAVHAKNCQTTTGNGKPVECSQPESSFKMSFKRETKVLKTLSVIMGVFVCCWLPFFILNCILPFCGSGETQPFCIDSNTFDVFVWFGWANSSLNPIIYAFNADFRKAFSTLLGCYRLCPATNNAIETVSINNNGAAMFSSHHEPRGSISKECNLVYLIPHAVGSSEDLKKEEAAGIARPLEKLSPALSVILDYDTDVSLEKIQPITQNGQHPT
Sequence of Histamine H2 receptor (P25021 whole entry): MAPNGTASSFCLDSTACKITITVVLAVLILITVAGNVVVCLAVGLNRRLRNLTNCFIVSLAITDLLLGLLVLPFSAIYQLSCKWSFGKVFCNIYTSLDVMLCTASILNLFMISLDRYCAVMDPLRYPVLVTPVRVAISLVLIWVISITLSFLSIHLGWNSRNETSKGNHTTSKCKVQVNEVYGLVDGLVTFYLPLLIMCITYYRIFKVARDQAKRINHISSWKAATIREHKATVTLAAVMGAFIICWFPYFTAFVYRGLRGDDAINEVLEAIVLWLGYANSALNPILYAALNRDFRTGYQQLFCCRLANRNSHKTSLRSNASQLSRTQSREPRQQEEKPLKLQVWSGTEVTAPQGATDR
Sequence of D(1B) dopamine receptor (P21918 whole entry): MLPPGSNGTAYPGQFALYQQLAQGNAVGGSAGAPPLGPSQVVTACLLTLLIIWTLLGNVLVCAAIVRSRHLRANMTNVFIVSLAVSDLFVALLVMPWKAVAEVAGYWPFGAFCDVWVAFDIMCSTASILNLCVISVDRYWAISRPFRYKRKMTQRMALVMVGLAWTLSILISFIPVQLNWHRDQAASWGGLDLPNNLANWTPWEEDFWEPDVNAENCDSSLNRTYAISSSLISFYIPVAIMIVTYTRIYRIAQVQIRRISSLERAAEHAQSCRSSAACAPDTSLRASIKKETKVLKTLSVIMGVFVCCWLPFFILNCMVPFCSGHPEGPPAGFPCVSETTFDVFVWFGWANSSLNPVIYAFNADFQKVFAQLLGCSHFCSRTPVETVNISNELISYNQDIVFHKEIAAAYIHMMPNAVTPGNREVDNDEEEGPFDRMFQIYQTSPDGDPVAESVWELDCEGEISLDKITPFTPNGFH
Sequence of 5-hydroxytryptamine receptor 7 (P34969 whole entry): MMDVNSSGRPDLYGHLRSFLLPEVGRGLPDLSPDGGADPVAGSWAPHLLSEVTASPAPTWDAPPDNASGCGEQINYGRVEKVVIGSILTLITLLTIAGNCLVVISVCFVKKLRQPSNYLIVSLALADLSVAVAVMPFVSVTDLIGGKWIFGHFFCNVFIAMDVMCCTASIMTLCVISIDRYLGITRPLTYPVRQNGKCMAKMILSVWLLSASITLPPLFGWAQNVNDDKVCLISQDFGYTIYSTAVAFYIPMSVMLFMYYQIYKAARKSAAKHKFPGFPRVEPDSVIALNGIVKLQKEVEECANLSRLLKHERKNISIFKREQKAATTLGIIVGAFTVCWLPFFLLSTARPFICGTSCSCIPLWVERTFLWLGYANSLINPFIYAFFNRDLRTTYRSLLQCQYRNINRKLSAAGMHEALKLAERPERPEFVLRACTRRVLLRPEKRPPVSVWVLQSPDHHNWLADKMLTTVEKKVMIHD
Sequence of D(3) dopamine receptor (P35462 whole entry): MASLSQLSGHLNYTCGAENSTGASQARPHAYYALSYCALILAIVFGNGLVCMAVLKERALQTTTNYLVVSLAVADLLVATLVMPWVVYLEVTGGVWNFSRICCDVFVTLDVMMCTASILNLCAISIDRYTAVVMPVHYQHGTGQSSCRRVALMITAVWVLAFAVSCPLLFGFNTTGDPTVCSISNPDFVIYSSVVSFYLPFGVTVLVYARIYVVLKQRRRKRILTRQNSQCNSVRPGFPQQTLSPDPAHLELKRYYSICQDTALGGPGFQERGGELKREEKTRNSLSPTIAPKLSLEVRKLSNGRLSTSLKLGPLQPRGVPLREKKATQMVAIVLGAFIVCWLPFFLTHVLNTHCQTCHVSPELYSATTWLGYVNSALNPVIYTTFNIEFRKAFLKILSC
Sequence of 5-hydroxytryptamine receptor 2A (P28223 whole entry): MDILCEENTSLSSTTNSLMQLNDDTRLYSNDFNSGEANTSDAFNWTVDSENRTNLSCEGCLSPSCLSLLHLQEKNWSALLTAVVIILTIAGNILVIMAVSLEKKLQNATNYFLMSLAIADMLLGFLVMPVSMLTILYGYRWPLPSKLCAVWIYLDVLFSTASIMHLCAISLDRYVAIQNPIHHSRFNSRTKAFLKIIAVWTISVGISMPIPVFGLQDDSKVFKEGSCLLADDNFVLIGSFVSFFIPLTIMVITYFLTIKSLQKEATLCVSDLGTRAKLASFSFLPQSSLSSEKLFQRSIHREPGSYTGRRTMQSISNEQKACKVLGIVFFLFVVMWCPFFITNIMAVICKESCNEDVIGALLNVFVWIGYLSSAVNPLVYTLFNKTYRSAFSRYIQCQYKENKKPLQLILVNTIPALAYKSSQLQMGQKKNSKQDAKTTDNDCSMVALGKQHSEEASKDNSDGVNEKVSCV
Sequence of Histamine H1 receptor (P35367 whole entry): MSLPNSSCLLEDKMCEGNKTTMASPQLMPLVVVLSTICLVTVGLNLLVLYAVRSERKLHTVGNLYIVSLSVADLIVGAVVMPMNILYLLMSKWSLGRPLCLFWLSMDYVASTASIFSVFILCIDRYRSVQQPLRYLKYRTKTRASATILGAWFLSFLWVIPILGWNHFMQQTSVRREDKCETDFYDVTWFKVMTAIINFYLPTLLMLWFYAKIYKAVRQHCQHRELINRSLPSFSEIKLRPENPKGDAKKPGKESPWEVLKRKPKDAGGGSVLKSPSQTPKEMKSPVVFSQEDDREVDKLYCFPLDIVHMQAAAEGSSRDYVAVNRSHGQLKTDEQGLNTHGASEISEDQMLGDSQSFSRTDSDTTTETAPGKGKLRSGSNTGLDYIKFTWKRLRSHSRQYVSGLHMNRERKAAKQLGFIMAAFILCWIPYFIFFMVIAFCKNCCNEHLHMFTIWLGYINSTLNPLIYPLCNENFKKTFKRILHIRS
Sequence of D(2) dopamine receptor (P14416 whole entry): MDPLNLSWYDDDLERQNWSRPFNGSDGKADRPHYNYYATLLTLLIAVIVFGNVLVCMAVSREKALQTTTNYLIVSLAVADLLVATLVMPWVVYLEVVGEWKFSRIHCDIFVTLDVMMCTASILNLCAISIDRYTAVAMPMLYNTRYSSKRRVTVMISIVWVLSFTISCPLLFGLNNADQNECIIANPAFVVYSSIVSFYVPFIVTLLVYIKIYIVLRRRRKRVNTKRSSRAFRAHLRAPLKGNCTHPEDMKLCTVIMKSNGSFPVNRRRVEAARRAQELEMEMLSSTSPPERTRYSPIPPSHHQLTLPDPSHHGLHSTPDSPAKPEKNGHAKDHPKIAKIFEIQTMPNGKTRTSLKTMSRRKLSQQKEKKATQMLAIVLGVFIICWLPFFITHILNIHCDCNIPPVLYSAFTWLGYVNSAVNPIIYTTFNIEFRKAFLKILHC
Sequence of Adenosine receptor A1 (P30542 whole entry): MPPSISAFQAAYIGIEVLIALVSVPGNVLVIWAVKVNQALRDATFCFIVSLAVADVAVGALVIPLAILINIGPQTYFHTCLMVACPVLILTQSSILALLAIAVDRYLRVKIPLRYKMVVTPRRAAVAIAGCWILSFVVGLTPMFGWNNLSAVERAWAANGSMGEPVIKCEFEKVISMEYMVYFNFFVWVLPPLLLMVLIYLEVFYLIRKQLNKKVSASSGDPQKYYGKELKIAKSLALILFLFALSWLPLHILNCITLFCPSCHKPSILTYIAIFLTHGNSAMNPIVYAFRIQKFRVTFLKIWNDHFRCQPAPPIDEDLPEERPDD

Row | SMILES | IC50 (Adenosine receptor A3) | IC50 [1] | IC50 [2] | IC50 (D(4) dopamine receptor) | IC50 (Histamine H1 receptor) | IC50 [3] | IC50 [4] | IC50 [5] | IC50 (D(3) dopamine receptor) | IC50 (D(1B) dopamine receptor) | IC50 [6] | IC50 (Histamine H2 receptor) | IC50 [7] | IC50 [8] | further results
1 | COc1ccc(SCCC(=O)N2CCN(Cc3cccc(Oc4ccc(Cl)cc4)c3)CC2)cc1 | 3.75 µM | – | – | – | – | – | – | – | – | – | – | – | – | – | –
2 | N#Cc1ccc(CCOC(=O)N2CCN(CCCc3ccccc3)CC2)cc1 | – | 1570 nM | 854 nM | 1410 nM | 280 nM | – | – | – | – | – | – | – | – | – | –
3 | CCOc1ccc(CCNC(=O)N2CCN(CCCC(c3ccc(F)cc3)c3ccc(F)cc3)CC2)cc1 | 2.46 µM | – | 231 nM | – | 1820 nM | 1420 nM | 800 nM | 2040 nM | 341 nM | 1450 nM | 994 nM | 757 nM | 860 nM | 993 nM | IC50 (D(2) dopamine receptor): 2890 nM; IC50 (D(1A) dopamine receptor): 967 nM; IC50 (Substance-P receptor): 839 nM; IC50 (Substance-K receptor): 5.18 µM
4 | CCOc1ccc(CCOC(=O)N2CCN(CCCc3ccccc3)CC2)cc1 | 4.18 µM | – | 980 nM | – | – | – | – | 1430 nM | – | – | – | – | – | – | –
5 | O=C(OC1CCc2ccccc21)N1CCC2(CC1)C(=O)NCN2c1ccccc1 (stereo not given) | – | – | – | – | – | 345 nM | – | – | 3180 nM | – | – | – | – | – | IC50 (Vasopressin V1a receptor): 5.16 µM
6 | O=C(OCCc1ccc(F)cc1)N1CCN(CCCC(c2ccc(F)cc2)c2ccc(F)cc2)CC1 | 4.21 µM | 1140 nM | 1060 nM | 338 nM | 1280 nM | 3450 nM | 1530 nM | 726 nM | 456 nM | 1550 nM | 1650 nM | 1250 nM | 2730 nM | 1640 nM | IC50 (D(2) dopamine receptor): 2620 nM
7 | N#Cc1ccc(CCOC(=O)N2CCN(CCCC(c3ccc(F)cc3)c3ccc(F)cc3)CC2)cc1 | 3.48 µM | 1020 nM | 715 nM | 776 nM | 795 nM | – | 2280 nM | 1440 nM | 195 nM | 988 nM | 996 nM | 1030 nM | 1720 nM | 1100 nM | IC50 [9]: 3.38 µM; IC50 (D(2) dopamine receptor): 2240 nM; IC50 (D(1A) dopamine receptor): 1120 nM
8 | COc1ccc(CN2CCN(C(=O)CCn3cc(C)c4ccccc43)CC2)cc1OCc1ccccc1 | 3.73 µM | – | – | – | – | – | – | – | – | – | – | – | 4840 nM | – | –
9 | O=C(NCCCn1c(=O)[nH]c2ccccc21)OCc1cc2c(cc1Cl)OCO2 | 3.33 µM | – | – | – | – | – | – | – | – | – | – | – | – | – | IC50 (Adenosine receptor A1): 344 nM
10 | O=C(CCc1ccc(F)cc1)N1CCN(CCCC(c2ccc(F)cc2)c2ccc(F)cc2)CC1 | 5.08 µM | 1110 nM | 1030 nM | 716 nM | 1660 nM | – | 1350 nM | 1170 nM | 977 nM | 3020 nM | 1280 nM | 1340 nM | 4300 nM | 1170 nM | –
11 | O=C(CCCc1ccccc1)N1CCN(CCCC(c2ccc(F)cc2)c2ccc(F)cc2)CC1 | – | – | 950 nM | 280 nM | 1930 nM | 4070 nM | 7780 nM | 2130 nM | 758 nM | 1860 nM | 954 nM | 1980 nM | 2350 nM | 2190 nM | IC50 [9]: 5.52 µM; IC50 (D(1A) dopamine receptor): 2750 nM
12 | O=C(OCc1cccc(Oc2ccccc2)c1)N1CCC2(CC1)C(=O)NCN2c1ccccc1 | 1.51 µM | 2080 nM | – | – | – | 652 nM | – | – | – | – | – | – | – | – | IC50 [10]: 2940 nM
13 | O=c1[nH]c2ccccc2n(C2CCN(Cc3cc4c(cc3Cl)OCO4)CC2)c1=O | – | – | – | 6550 nM | – | – | – | – | – | – | 1520 nM | – | – | – | –
